Values of other authors in US20260315605A1, “PROTACS FOR ASK1 PROTEIN DEGRADATION: PREPARATION AND USE THEREOF” (COUNCIL OF SCIENTIFIC AND INDUSTRIAL RESEARCH, priority 2023, published 2026).

What was measured:
[1] = test system: NASH patients; conditions: Phase III, Harrison et al. 2020
[2] = test system: ASK1/MAPK pathway; conditions: Harrison et al. 2020

Cc1cc(F)c(C(=O)Nc2cccc(-c3nncn3C(C)C)n2)cc1-n1cnc(C2CC2)c1 [selonsertib]
clinical outcome, fibrosis improvement [1]: failed in Phase III clinical trial of fibrosis improvement in NASH patients | anti-fibrotic activity [2]: promising anti-fibrotic activity
